Here are results for one substance from US10292385B2, “Method for supression of infection by plant virus” (priority 2014, dated 2019).

Assay [1] has as its system adult whiteflies. The assay is described as follows: Observation of adult whitefly survival after spraying compound A. The format is in vivo, sweetpotato whiteflies. The note with it: one week after spraying. An excerpt: From the above, it is conceivable that the present invention greatly enhances the effect of suppressing plant virus infection attained by the compound A.

The test system of assay [2] is TYLCV. The assay is described as follows: TYLCV infection suppression test on chemical-sprayed cherry tomatoes exposed to viruliferous adult sweetpotato whiteflies (Test Example 1). The format is in vivo, tomato yellow leaf curl virus (TYLCV). The note with it: for Percentage of TYLCV infection suppressed, Determined value: cherry tomato, 16 plants, PCR and symptom after 30 days. The source says: Seedlings of cherry tomatoes (cultivar: ‘YellowPear’) were transferred to small pots and grown until 2- to 2.5-leaf stages. A chemical having been adjusted to a predetermined concentration by dilution was sprayed thereon in a sufficient amount (the amount was such that the chemical solution dripped from the leaves), and the plants on which the diluted chemical has been sprayed were dried under a shielded condition in a greenhouse. In an aluminum-made large test container (length×width×height =68×44×82 cm, the upper surface and four side surfaces thereof are present as mesh surfaces for aeration), 16 pots containing the chemical-sprayed cherry tomatoes were equally arranged, and installation stands for releasing adult sweetpotato whiteflies were arranged at two positions on a diagonal line in the container. Chemical-resistant adult sweetpotato whiteflies to chemicals such as organophosphorus insecticides, carbamate insecticides, synthetic pyrethroid insecticides, ecdysis regulating insecticides, and neonicotinoid insecticides (hereinafter, chemical resistant adult sweetpotato whiteflies is simply referred to as adult sweetpotato whiteflies) were released for 3 days to suck a cherry tomato for TYLCV acquisition, so that the whiteflies were acquired TYLCV. Note that the chemical-resistant sweetpotato whiteflies used were kindly provided from Kumamoto Agricultural Research Center. The cherry tomato leaves were cut out together with the adult sweetpotato whiteflies settled on the infected cherry tomato, and equally left on the two flying sources in the aluminum-made container. After the leaves wither up, the adult sweetpotato whiteflies spontaneously spread inside the test container. The adult sweetpotato whiteflies were equally scattered to the two flying sources such that the number of individuals released was approximately 1 or 2.5 per plant (e.g.: in the case where the number of the adult sweetpotato whitefly individuals is approximately 1 per plant, 8 whiteflies×2 positions=16 whiteflies in the test container). The release period was set to 7 days. In conducting the test, any test chemical was at a practical concentration. […]

“glycerin diacetomonolaurate [compound A]”: the “survival of adult whiteflies after spraying” value in assay [1] is reported as “adult whiteflies survived one week thereafter”. Moreover, the “Percentage of TYLCV infection suppressed, Corrected value” in assay [2] (1.0 whiteflies/plant, corrected with the untreatment of test plot 5) is listed as “(50.0) %”. For the same substance, the “Percentage of TYLCV infection suppressed, Determined value” in assay [2] (chemical-resistant adult sweetpotato whiteflies released 1.0 whiteflies/plant for 7 days) is listed as 62.5%; in assay [2] (chemical-resistant adult sweetpotato whiteflies released 2.5 whiteflies/plant for 7 days) it was 50.0%. Also, in assay [2] (whiteflies released for 7 days on sprayed cherry tomato, corrected value compared with theoretical value), the “TYLCV infection suppressing effect (in words)” value is reported as “suppressed to some extent”.
